According to patent EP1439177B1, “Antiviral activity and resolution of 2-hydroxymethyl-5-(5-fluorocytosin-1-yl)-1,3-oxathiolane” (Emory University, priority 1991, dated 1992):
“And” between values parts separate entries of the source, which are not always exact repeats. Identical values can stand only once. Like-named read-outs stand apart in the source and are kept apart here.

Experiments:
[1] = molecular target: HIV-1 reverse transcriptase (RT); assay: Competitive inhibition of HIV-1 reverse transcriptase, poly(I)oligo(dC) template-primer; assay type: biochemical; details: read-out: K1 (affinity), competitive inhibition
Experimental: (§1) Toxicity and pharmacokinetic studies confirm the usefulness of FTC as an antiviral agent for pharmaceutical administration. FTC and its enantiomers are nontoxic to peripheral human bone marrow cells at concentrations up to 50 µM and other cell lines at concentrations up to 200 µM. FTC-TP is a major intracellular metabolite in PBMC and HepG2 cells.

HIV-RT = HIV-RT (Human immunodeficiency virus type 1 group M subtype B, UniProt P04585); assay: DNA chain termination by sequencing analysis; assay type: biochemical
Experimental: as §1

human PBM cells = assay: Egress of radiolabeled FTC from human PBM cells; assay type: in vitro ADME; details: 48 hours after the removal of the extracellular drug
Experimental: This study measures the time needed for intracellular levels of triphosphates to decline. Studies were conducted in duplicate. Uninfected cells (2 x 10^6 ml) were suspended in the appropriate medium supplemented with serum (10 ml per timepoint) and incubated at 37°C in a 5% CO2 incubator. The radiolabeled FTC concentration was 10 µM. After pulsing the cells with the labeled compound for 24 hours, the cells were thoroughly washed and then replenished with fresh medium without the antiviral drugs (0 hr). At 0, 2, 4, 6, 12, 24, and 48 hours (second incubation time), the cells were removed, and immediately extracted with 60% cold methanol/water. The extract was obtained by centrifugation and removal of the cell pellet. The extracts were lyophilized and then stored at -70°C. Prior to analysis, the material was resuspended in 250 microliters of HPLC buffer and immediately analyzed. Quantitation of intracellular parent drug and metabolic derivatives was conducted by HPLC, using either a Micromeritics or Hewlett-Packard model 1090 PHLC system with an anion exchange Partisel 10 SAX column (Whatman, Inc.), at a flow rate of 1 ml/min, 1 kpsi pressure, with UV detection at 262 nm. The mobile phase consisted of deionized water (A), 2 mM NaH2PO4/16 mM NaOAc (pH = 6.6) (B), 15 mM NaH2PO4/120.2 mM NaOAc (pH = 6.6) (C), and 100 mM NaH2PO4/800 mM NaOAc (pH = 6.6) (D). […]

HBV = details: for INT[…] DNA RI: HBV DNA replication intermediates; for inhibition of the replication of HBV: at the tested levels (Table 7, 10 µM)
Experimental: A summary and description of the assay for antiviral effects in this culture system and the analysis of HBV DNA has been described (Korba and Milman, 1991, Antiviral Res., 15:217). The antiviral evaluations were performed on two separate passages of cells. All wells, in all plates, were seeded at the same density and at the same time.
Due to the inherent variations in the levels of both intracellular and extracellular HBV DNA, only depressions greater than 3.5-fold (for HBV virion DNA) or 3.0-fold (for HBV DNA replication intermediates) from the average levels for these HBV DNA forms in untreated cells are considered to be statistically significant [P<0.05]. The levels of integrated HBV DNA in each cellular DNA preparation (which remain constant on a per cell basis in these experiments) were used to calculate the levels of intracellular HBV DNA forms, thereby ensuring that equal amounts of cellular DNA were compared between separate samples.

2.2.15 cells = assay: Toxicity analysis in 2.2.15 cells, neutral red dye uptake; assay type: cell-based, human; details: 330 µM
Experimental: (§2) Toxicity analyses were performed to assess whether any observed antiviral effects were due to a general effect on cell viability. The method used herein was the measurement of the uptake of neutral red dye, a standard and widely used assay for cell viability in a variety of virus-host systems, including HSV and HIV. Toxicity analyses were performed in 96-well flat bottomed tissue culture plates. Cells for the toxicity analyses were cultured and treated with test compounds with the same schedule as described for the antiviral evaluations below. Each compound was tested at 4 concentrations, each in triplicate cultures (wells "A", "B", and "C"). Uptake of neutral red dye was used to determine the relative level of toxicity. The absorbance of internalized dye at 510 nm (Asin) was used for the quantitative analysis. Values are presented as a percentage of the average Asin values in 9 separate cultures of untreated cells maintained on the same 96-well plate as the test compounds. Dye uptake in the 9 control cultures on plate 5 ranged from 91.6% to 110.4%, and on plate 6 from 96.6% to 109%.

[2] = as above; assay type: cell-based, human; details: human, 2.2.15 cells
Experimental: as §2

[3] = Growth inhibition of mitogen-stimulated uninfected human PBM cells, trypan blue exclusion; assay type: cell-based; details: human, pbm cells
HIV-2 = assay: microbe, parasite or virus in culture; details: Human immunodeficiency virus 2, PBMC
Experimental: Cell lines were obtained from either human donors, AIDS Research and Reference Reagent Program, NIH, Rockville, Maryland, ATCC, or the Red Cross. The CEM thymidine kinase deficient cells were prepared by sequential passage of CEM cells in the presence of 5-bromo-2'-deoxyuridine.

HIV-1 (strain LAV) = assay: microbe, parasite or virus in culture; assay type: cell-based; details: Human immunodeficiency virus 1, PBMC; for inhibition at 0.001 µM / inhibition at 0.005 µM / inhibition at 0.01 µM / inhibition at 0.05 µM / inhibition at 0.1 µM / inhibition at 0.5 µM: read-out: % Inhibition (Corrected)
From the text: It is often desirable to screen a number of racemic mixtures of nucleosides as a preliminary step to determine which warrant further resolution into enantiomerically enriched components and further evaluation of antiviral activity. The ability of nucleosides to inhibit HIV can be measured by various experimental techniques. The technique used herein, and described in detail below, measures the inhibition of viral replication in phytohemagglutinin (PHA) stimulated human peripheral blood mononuclear (PBM) cells infected with HIV-1 (strain LAV). The amount of virus produced is determined by measuring the virus-coded reverse transcriptase enzyme. The amount of enzyme produced is proportional to the amount of virus produced.
• A. Three-day-old phytohemagglutinin-stimulated PBM cells (10^6 cells/ml) from hepatitis B and HIV-1 seronegative healthy donors were infected with HIV-1 (strain LAV) at a concentration of about 100 times the 50% tissue culture infectious dose (TICD 50) per ml and cultured in the presence and absence of various concentrations of antiviral compounds. • B. Approximately one hour after infection, the medium, with the compound to be tested (2 times the final concentration in medium) or without compound, was added to the flasks (5 ml; final volume 10 ml). AZT was used as a positive control. • C. The cells were exposed to the virus (about 2 x 10^5 dpm/ml, as determined by reverse transcriptase assay) and then placed in a CO2 incubator. HIV-1 (strain LAV) was obtained from the Center for Disease Control, Atlanta, Georgia. The methods used for culturing the PBM cells, harvesting the virus and determining the reverse transcriptase activity were those described by McDougal et al. (J. Immun. Meth. 76, 171-183, 1985) and Spira et al. (J. Clin. Meth. 25, 97-99, 1987), except that fungizone was not included in the medium (see Schinazi, et al., Antimicrob. Agents Chemother. 32, 1784-1787 (1988); Id., 34:1061-1067 (1990)). • D. On day 6, the cells and supernatant were transferred to a 15 ml tube and centrifuged at about 900 g for 10 minutes. Five ml of supernatant were removed and the virus was concentrated by centrifugation at 40,000 rpm for 30 minutes (Beckman 70.1 Ti rotor). The solubilized virus pellet was processed for determination of the levels of reverse transcriptase. Results are expressed in dpm/ml of sampled supernatant. Virus from smaller volumes of supernatant (1 ml) can also be concentrated by centrifugation prior to solubilization and determination of reverse transcriptase levels.

[4] = system: granulocyte-macrophage precursor cells; details: compared with the (+)-enantiomer and AZT; Figure 12
[5] = read-out: DYE UPTAKE (% OF CONTROL) WELL A
[6] = read-out: DYE UPTAKE (% OF CONTROL) WELL C
[7] = read-out: DYE UPTAKE (% OF CONTROL) WELLB

Row | SMILES | inhibition of the replication of HBV (HBV) | toxicity at the highest concentration used for the toxicity tests (2.2.15 cells) | viability at 10 µM [2, 5] [%] | viability at 10 µM [2, 6] [%] | viability at 10 µM [2, 7] [%] | viability at 30 µM [2, 5] [%] | viability at 30 µM [2, 6] [%] | viability at 30 µM [2, 7] [%] | viability at 100 µM [2, 5] [%] | viability at 100 µM [2, 6] [%] | viability at 100 µM [2, 7] [%] | viability at 300 µM [2, 5] [%] | viability at 300 µM [2, 6] [%] | viability at 300 µM [2, 7] [%] | CC50 at 144 h [3] [µM] | EC50 (HIV-2) [µM] | inhibition at 0.001 µM (HIV-1 (strain LAV)) [%] | inhibition at 0.005 µM (HIV-1 (strain LAV)) [%] | inhibition at 0.01 µM (HIV-1 (strain LAV)) [%] | inhibition at 0.05 µM (HIV-1 (strain LAV)) [%] | further results
1 | Nc1nc(=O)n([C@@H]2CS[C@H](COP(=O)(O)OP(=O)(O)OP(=O)(O)O)O2)cc1F (racemic) [FTC-TP] |  |  |  |  |  |  |  |  |  |  |  |  |  |  |  |  |  |  |  |  | Ki [1]: 0.2 µM; DNA chain terminator (C-stops) (HIV-RT): potent DNA chain terminator; intracellular concentration (human PBM cells): 1 to 5 µM
2 | Nc1nc(=O)n([C@@H]2CS[C@H](CO)O2)cc1F (single isomer, unassigned) [(-)-FTC, (-)-β-L-2-hydroxymthyl-5-(5-fluorocytosin-1-yl)-1,3-oxathiolane] | significantly inhibited | appeared to be toxic | 94.3 | 92.2 | 94.9 | 98.7 | 96.4 | 94.3 | 64.1 | 77.6 | 66.6 | 53 | 51.5 | 51.1 | > 100 | 0.0007 | 23.8 | 43.3 | 24.8 | 76.2 | HBV VIRION DNA DAY 0 (HBV; 0.25 µM, replicate wells): 89 pg/ml CULTURE MEDIUM; HBV VIRION DNA DAY 4 (HBV; 0.25 µM, replicate wells): 15 pg/ml CULTURE MEDIUM; INT[…] DNA RI (HBV; 1 µM, 24 hours following the 9th day of treatment): 2 pg/µg CELL DNA and 3 pg/µg CELL DNA and 4 pg/µg CELL DNA; HBV VIRION DNA DAY 0 (HBV; 1 µM, replicate wells): 89 pg/ml CULTURE MEDIUM; HBV VIRION DNA DAY 4 (HBV; 1 µM, replicate wells): 15 pg/ml CULTURE MEDIUM and 22 pg/ml CULTURE MEDIUM; INT[…] DNA MONO. (HBV; 1 µM, episomal 3.2 kb HBV genomes, 24 hours following the 9th day of treatment): 1.7 pg/µg CELL DNA and 1.4 pg/µg CELL DNA; INT[…] DNA RI (HBV; 4 µM, 24 hours following the 9th day of treatment): 1 pg/µg CELL DNA and 2 pg/µg CELL DNA; inhibition at 0.1 µM (HIV-1 (strain LAV)): 93.5%; inhibition at 0.5 µM (HIV-1 (strain LAV)): 97.6%; EC50 (HIV-1 (strain LAV); read-out: Antiviral EC50): 0.008 µM; EC50 (HIV-1 (strain LAV); read-out: EC50): 0.0077 µM; EC50 (HIV-1 (strain LAV); read-out: EC50:µM): 0.02 µM; toxicity (IC50) on colony formation [4]: less toxic
3 | Nc1nc(=O)n([C@H]2CS[C@@H](CO)O2)cc1F [(+)-FTC, (+)-β-D-2-hydroxymethyl-5-(5-fluorocytosin-1-yl)-1,3-oxathiolane] | significantly inhibited | appeared to be toxic | 90.9 | 90.5 | 99.4 | 81.1 | 88.1 | 88.3 | 77.7 | 72.1 | 66.3 | 43.4 | 58.5 | 56.7 | > 100 | 0.026 | 3.8 | -10.6 | -1.8 | 11.8 | HBV VIRION DNA DAY 0 (HBV; 10 µM, replicate wells): 58 pg/ml Culture Medium; HBV Virion DNA DAY 9 (HBV; 10 µM, day 9, sensitivity cutoff 0.1 pg/ml, replicate wells): 0.1 pg/ml Culture Medium; inhibition at 0.1 µM (HIV-1 (strain LAV)): 12.7%; inhibition at 0.5 µM (HIV-1 (strain LAV)): 71.4%; EC50 (HIV-1 (strain LAV); read-out: Antiviral EC50): 0.84 µM; EC50 (HIV-1 (strain LAV); read-out: EC50): 0.84 µM; EC50 (HIV-1 (strain LAV); read-out: EC50:µM): 0.28 µM
